The values that follow come from ChEMBL document CHEMBL1201862, “PubChem BioAssay data set” (2004).

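These data come from cells grown in 96-well plates and exposed to compound for 48 hours at five concentrations. GI50 is the concentration that inhibits growth by half.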 The source made the active and inactive calls. Rule as the data show it: active = GI50 up to about 1.1 µM and inactive = higher.

Among the test systems are 786-0; BT-549; CCRF-CEM; COLO 205; EKVX; HOP-62; HOP-92; HT-29; K562; KM12; MDA-N; OVCAR-3; OVCAR-4; SF-295; SN12C; T47D; TK-10; U-251; UO-31.
Holding throughout (assay): NCI tumour cell line growth inhibition, 48 h

Regarding `O=C(NC1CCCCC1)N1CCNC1=S`, the GI50 is > 100 µM (inactive) with 786-0; 66.4 µM (inactive) with BT-549; > 100 µM (inactive) with CCRF-CEM; > 100 µM (inactive) in the assay with COLO 205; 9.53 µM (inactive) with EKVX; > 100 µM (inactive) with HOP-62. For the same compound, the GI50 in the assay with HOP-92, in the assay on HT-29, with K562, in the assay on KM12, in the assay with MDA-N and in the assay on OVCAR-3 was > 100 µM (inactive) each time. Moreover, the GI50 in the assay on OVCAR-4 is > 100 µM (inactive); in the assay with SF-295, > 100 µM (inactive); in the assay on SN12C, > 100 µM (inactive); in the assay on T47D, > 100 µM (inactive); in the assay with TK-10 it was > 100 µM (inactive); in the assay with U-251, 1.91 µM (inactive). Besides, the GI50 in the assay on UO-31 is > 100 µM (inactive).

Take `Br[C@@H]1[C@H]2c3nc4ccccc4nc3[C@@H]1C[C@H]2Br`: the GI50 with 786-0 is > 100 µM (inactive); in the assay on BT-549 it was 65.5 µM (inactive); with CCRF-CEM it was 37 µM (inactive); with COLO 205, 45.7 µM (inactive); in the assay with EKVX, 86.1 µM (inactive); in the assay on HOP-62 it was > 100 µM (inactive). Besides, the GI50 in the assay with HOP-92 is 41.2 µM (inactive); with HT-29, 58.6 µM (inactive); with K562, 47.5 µM (inactive); with KM12, 51.4 µM (inactive); with MDA-N it was > 100 µM (inactive); in the assay on OVCAR-3, 76.9 µM (inactive). Also, the GI50 with OVCAR-4 was 32.1 µM (inactive); with SF-295, 74.3 µM (inactive); with SN12C, > 100 µM (inactive); in the assay on T47D it was 36.8 µM (inactive); with TK-10, > 100 µM (inactive); with U-251, 69.2 µM (inactive). In the assay with UO-31, the GI50 is 41.4 µM (inactive).

Regarding `CC(=O)/N=C1\C=C(NC(C)=O)C(=O)c2ccccc21`, the GI50 was 1.81 µM (inactive) in the assay on 786-0; 2.17 µM (inactive) in the assay on BT-549; 2.84 µM (inactive) with CCRF-CEM; 1.94 µM (inactive) with COLO 205; 5.19 µM (inactive) in the assay with EKVX; 18.5 µM (inactive) with HOP-62. For the same compound, the GI50 in the assay with HOP-92 was 1.45 µM (inactive); in the assay on HT-29 it was 2.58 µM (inactive); in the assay with K562 it was 2.04 µM (inactive); in the assay with KM12 it was 5.41 µM (inactive); in the assay with MDA-N, 1.9 µM (inactive); in the assay on OVCAR-3 it was 2.01 µM (inactive). The GI50 was 1.66 µM (inactive) in the assay with OVCAR-4; 3.68 µM (inactive) with SF-295; 1.78 µM (inactive) with SN12C; 1.48 µM (inactive) in the assay on T47D; 5.64 µM (inactive) with TK-10; 2.99 µM (inactive) in the assay with U-251. The GI50 in the assay with UO-31 is 2.04 µM (inactive).

For the compound `COc1cc2c(/C=C3/C(=O)N(C)c4ccccc43)c(Cl)[nH]c2cc1C`, the GI50 in the assay on 786-0 is 0.3 µM (active); in the assay with BT-549, 0.321 µM (active); with CCRF-CEM, 0.303 µM (active); with COLO 205, 0.216 µM (active); with EKVX, 0.641 µM (active); in the assay with HOP-62 it was 0.286 µM (active). Moreover, the GI50 with HOP-92 was 1.81 µM (inactive); in the assay with HT-29 it was 0.328 µM (active); in the assay with K562 it was 0.0966 µM (active); in the assay with KM12 it was 0.132 µM (active); with MDA-N, 0.0352 µM (active); in the assay with OVCAR-3, 0.116 µM (active). Besides, the GI50 with OVCAR-4 is 0.0906 µM (active); with SF-295, 0.0964 µM (active); with SN12C it was 0.471 µM (active); with T47D it was 1.46 µM (inactive); with TK-10, 0.284 µM (active); in the assay with U-251 it was 0.117 µM (active). Moreover, the GI50 with UO-31 is 2.28 µM (inactive).

As to `O=C(Nc1ccn(C2CC(I)C(COC(c3ccccc3)(c3ccccc3)c3ccccc3)O2)c(=O)n1)c1ccccc1` (centres undefined), the GI50 in the assay with 786-0 was 8.34 µM (inactive); with BT-549, 25.6 µM (inactive); with CCRF-CEM it was 8.89 µM (inactive); in the assay on COLO 205, 7.59 µM (inactive); in the assay with EKVX it was 13.2 µM (inactive); with HOP-62 it was 14 µM (inactive). In addition, the GI50 was 5.14 µM (inactive) in the assay on HOP-92; 6.5 µM (inactive) with HT-29; 5.28 µM (inactive) in the assay with K562; 7.46 µM (inactive) in the assay on KM12; 7.91 µM (inactive) in the assay on MDA-N; 4.25 µM (inactive) in the assay on OVCAR-3. Moreover, the GI50 is 3.75 µM (inactive) with OVCAR-4; 13.6 µM (inactive) with SF-295; 4.36 µM (inactive) in the assay on SN12C; 6.87 µM (inactive) in the assay with T47D; 15.9 µM (inactive) in the assay on TK-10; 10.1 µM (inactive) in the assay with U-251. For the same compound, in the assay on UO-31, the GI50 was 4.53 µM (inactive).

With `COc1ccc(C2c3cc4c(cc3C(O)C3CCC(=O)N23)OCO4)cc1` (centres undefined), the GI50 with 786-0 was > 100 µM (inactive); in the assay on BT-549, 96.4 µM (inactive); in the assay on CCRF-CEM, > 100 µM (inactive); in the assay with COLO 205 it was > 100 µM (inactive); with EKVX, > 100 µM (inactive); with HOP-62, > 100 µM (inactive). Besides, the GI50 in the assay with HOP-92, in the assay on HT-29, with K562, in the assay on KM12, in the assay with MDA-N and in the assay with OVCAR-3 was > 100 µM (inactive) each time. Further, the GI50 in the assay with OVCAR-4, in the assay with SF-295, with SN12C, with T47D, in the assay on TK-10 and in the assay on U-251 was > 100 µM (inactive) throughout. In the assay on UO-31, the GI50 is > 100 µM (inactive).

As to `Cc1c(Cc2ccccc2)c(Cc2ccccc2)c(C)[s+]1[O-]`, the GI50 in the assay on 786-0 is 22.9 µM (inactive); in the assay with BT-549 it was 33.2 µM (inactive); with CCRF-CEM it was 19.1 µM (inactive); with COLO 205, 20.5 µM (inactive); in the assay with EKVX, 18.4 µM (inactive); in the assay on HOP-62, 50.4 µM (inactive). The GI50 was 27.4 µM (inactive) with HOP-92; 16.7 µM (inactive) with HT-29; 21.2 µM (inactive) with K562; 17.3 µM (inactive) with KM12; 24.6 µM (inactive) in the assay with MDA-N; 30.8 µM (inactive) in the assay with OVCAR-3. Moreover, the GI50 in the assay on OVCAR-4 was 23.7 µM (inactive); in the assay on SF-295 it was 30.1 µM (inactive); in the assay with SN12C it was 26.5 µM (inactive); with T47D it was 12.9 µM (inactive); in the assay on TK-10, 26.1 µM (inactive); with U-251, 25.6 µM (inactive). For the same compound, the GI50 in the assay with UO-31 was 31.7 µM (inactive).

For the compound `CCCCCCCCC/C=C1/CC(CO)(COC(=O)c2ccccc2)OC1=O` (centres undefined), the GI50 in the assay with 786-0 was 10.4 µM (inactive); in the assay on BT-549 it was 14.1 µM (inactive); in the assay with CCRF-CEM it was 10.9 µM (inactive); with COLO 205 it was 1.85 µM (inactive); with EKVX, 14.9 µM (inactive); in the assay on HOP-62, 4.92 µM (inactive). Moreover, the GI50 is 1.61 µM (inactive) with HOP-92; 17.7 µM (inactive) with HT-29; 3.89 µM (inactive) in the assay with K562; 16.7 µM (inactive) with KM12; 6.01 µM (inactive) with MDA-N; 16.7 µM (inactive) in the assay on OVCAR-3. Further, the GI50 was 12.7 µM (inactive) in the assay on OVCAR-4; 10 µM (inactive) in the assay with SF-295; 12.5 µM (inactive) in the assay with SN12C; 11.5 µM (inactive) with T47D; 10.8 µM (inactive) in the assay with TK-10; 14 µM (inactive) with U-251. Moreover, the GI50 with UO-31 was 13 µM (inactive).

For `CC(=O)Nc1ccc(N2C(=O)/C(=C\c3cccc(Oc4ccccc4)c3)S(=O)(=O)C2c2ccccc2)cc1` (centres undefined), the GI50 with 786-0 is > 100 µM (inactive); in the assay on BT-549, > 100 µM (inactive); with CCRF-CEM, 27.7 µM (inactive); with COLO 205, > 100 µM (inactive); with EKVX it was > 100 µM (inactive); with HOP-62 it was > 100 µM (inactive). Also, the GI50 was 55.2 µM (inactive) with HOP-92; 41.5 µM (inactive) in the assay on HT-29; 37.3 µM (inactive) with K562; > 100 µM (inactive) with KM12; 27.2 µM (inactive) in the assay on MDA-N; 49.4 µM (inactive) in the assay on OVCAR-3. Further, the GI50 in the assay on OVCAR-4 is 37.8 µM (inactive); in the assay on SF-295 it was 89.5 µM (inactive); with SN12C it was 46.5 µM (inactive); in the assay on T47D it was 35.9 µM (inactive); with TK-10 it was > 100 µM (inactive); in the assay on U-251, 39.3 µM (inactive). In addition, the GI50 with UO-31 was 29.7 µM (inactive).

Take `N=C(N)Nc1ccc(CC(N)NCC(=O)O)cc1` (centres undefined): the GI50 with 786-0, in the assay on BT-549, with CCRF-CEM, with COLO 205, in the assay with EKVX and in the assay on HOP-62 was > 25 µM (inactive) in each case. Also, the GI50 with HOP-92, in the assay on HT-29, in the assay on K562, in the assay on KM12, with MDA-N and in the assay with OVCAR-3 was > 25 µM (inactive) in each case. The GI50 in the assay on OVCAR-4, in the assay on SF-295, in the assay on SN12C, in the assay on T47D, in the assay with TK-10 and with U-251 was > 25 µM (inactive) each time. Also, the GI50 in the assay on UO-31 was > 25 µM (inactive).

In the case of `CCN(CC)CCn1ncc2ccc3c(c(=O)c4cccnc4n3CCN(CC)CC)c21`, the GI50 with 786-0 was 0.438 µM (active); in the assay on BT-549 it was 2.25 µM (inactive); with CCRF-CEM it was 0.348 µM (active); in the assay with COLO 205, 0.493 µM (active); in the assay with EKVX, 1.29 µM (inactive); in the assay on HOP-62 it was 0.867 µM (active). Moreover, the GI50 in the assay with HOP-92 is 1.38 µM (inactive); in the assay on HT-29, 0.435 µM (active); with K562, 0.119 µM (active); in the assay on KM12, 0.603 µM (active); in the assay on MDA-N it was 0.861 µM (active); in the assay on OVCAR-3, 1.13 µM (inactive). Moreover, the GI50 in the assay on OVCAR-4 is 0.933 µM (active); in the assay with SF-295, 1.3 µM (inactive); in the assay on SN12C, 0.621 µM (active); in the assay with T47D, 2.28 µM (inactive); in the assay with TK-10 it was 2.24 µM (inactive); with U-251, 0.597 µM (active). The GI50 with UO-31 is 1.5 µM (inactive).
